ChEMBL document CHEMBL5465560, “Selectivity Literature for EUbOPEN Chemogenomic Library” (2024)
One block for each compound: values may come before it.

Legend:
[1] = target: T1, Tyrosine-protein kinase Tec (Homo sapiens) (UniProt P42680); test: Selectivity interaction (KinomeScan (DiscoverX)) EUB0000607a TEC; details: at 10 µM
T1 sequence (whole entry): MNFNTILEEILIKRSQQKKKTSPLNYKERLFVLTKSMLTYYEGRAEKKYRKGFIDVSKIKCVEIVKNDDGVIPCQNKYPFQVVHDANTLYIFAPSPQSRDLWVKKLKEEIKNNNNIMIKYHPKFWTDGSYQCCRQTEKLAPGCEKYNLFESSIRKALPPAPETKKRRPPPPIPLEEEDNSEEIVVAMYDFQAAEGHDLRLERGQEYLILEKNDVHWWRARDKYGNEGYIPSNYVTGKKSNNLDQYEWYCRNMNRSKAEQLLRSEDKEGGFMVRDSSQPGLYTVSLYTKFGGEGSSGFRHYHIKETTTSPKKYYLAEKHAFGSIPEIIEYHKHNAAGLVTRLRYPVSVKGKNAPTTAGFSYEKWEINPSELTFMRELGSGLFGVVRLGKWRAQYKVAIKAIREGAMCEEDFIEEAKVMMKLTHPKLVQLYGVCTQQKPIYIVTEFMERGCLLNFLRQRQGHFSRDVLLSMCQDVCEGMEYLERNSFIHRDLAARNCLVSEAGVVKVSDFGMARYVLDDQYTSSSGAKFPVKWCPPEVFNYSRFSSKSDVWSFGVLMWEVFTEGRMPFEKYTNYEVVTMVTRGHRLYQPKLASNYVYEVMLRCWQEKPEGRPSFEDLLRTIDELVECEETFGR

[2] = target: Cyclin-dependent kinase 12 (Homo sapiens, UniProt Q9NYV4); test: Selectivity interaction (ActivX KiNativ screen (kinase selectivity in THP-1 cell lysates)) EUB0000639a CDK12; type: subcellular; details: lysate
Sequence of Cyclin-dependent kinase 12 (Q9NYV4 whole entry, looked up): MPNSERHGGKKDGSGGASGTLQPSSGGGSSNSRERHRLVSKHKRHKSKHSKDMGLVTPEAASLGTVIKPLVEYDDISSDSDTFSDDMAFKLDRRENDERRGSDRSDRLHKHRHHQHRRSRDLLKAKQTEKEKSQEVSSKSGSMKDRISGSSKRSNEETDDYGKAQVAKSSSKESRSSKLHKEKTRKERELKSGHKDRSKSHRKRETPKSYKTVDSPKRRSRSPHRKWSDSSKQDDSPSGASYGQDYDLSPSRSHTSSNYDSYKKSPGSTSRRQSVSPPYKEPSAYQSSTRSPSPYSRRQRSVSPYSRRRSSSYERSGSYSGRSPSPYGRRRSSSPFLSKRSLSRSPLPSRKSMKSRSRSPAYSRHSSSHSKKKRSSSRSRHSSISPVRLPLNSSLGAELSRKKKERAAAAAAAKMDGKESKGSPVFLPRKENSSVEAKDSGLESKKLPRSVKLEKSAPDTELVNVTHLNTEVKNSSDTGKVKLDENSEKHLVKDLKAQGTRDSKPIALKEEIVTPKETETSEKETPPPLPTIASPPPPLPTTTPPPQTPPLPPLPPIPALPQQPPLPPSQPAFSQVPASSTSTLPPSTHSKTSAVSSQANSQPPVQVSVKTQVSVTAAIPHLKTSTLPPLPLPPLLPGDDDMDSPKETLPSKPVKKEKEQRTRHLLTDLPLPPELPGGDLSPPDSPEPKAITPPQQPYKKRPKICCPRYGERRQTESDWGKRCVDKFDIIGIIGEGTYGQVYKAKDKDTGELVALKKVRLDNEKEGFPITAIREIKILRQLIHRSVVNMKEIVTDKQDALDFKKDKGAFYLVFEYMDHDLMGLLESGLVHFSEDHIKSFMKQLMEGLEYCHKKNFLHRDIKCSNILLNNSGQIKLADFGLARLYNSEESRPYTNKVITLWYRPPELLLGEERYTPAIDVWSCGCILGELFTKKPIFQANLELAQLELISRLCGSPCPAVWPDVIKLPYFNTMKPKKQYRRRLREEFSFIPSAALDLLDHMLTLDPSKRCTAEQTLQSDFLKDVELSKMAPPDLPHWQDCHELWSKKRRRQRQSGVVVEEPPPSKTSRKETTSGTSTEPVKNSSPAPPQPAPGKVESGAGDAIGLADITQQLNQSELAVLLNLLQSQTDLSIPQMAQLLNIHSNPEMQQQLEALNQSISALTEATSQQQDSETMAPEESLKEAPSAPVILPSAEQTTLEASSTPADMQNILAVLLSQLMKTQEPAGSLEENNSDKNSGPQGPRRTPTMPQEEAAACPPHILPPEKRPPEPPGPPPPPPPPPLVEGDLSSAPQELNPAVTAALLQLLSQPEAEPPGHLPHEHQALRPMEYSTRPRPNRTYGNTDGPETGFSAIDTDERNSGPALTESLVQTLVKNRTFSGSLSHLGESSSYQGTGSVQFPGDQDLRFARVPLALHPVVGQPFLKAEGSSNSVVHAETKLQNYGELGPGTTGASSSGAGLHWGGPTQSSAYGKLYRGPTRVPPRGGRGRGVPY

[3] = target: T2, Serine/threonine-protein kinase DCLK1 (Homo sapiens) (UniProt O15075); test: Selectivity interaction (Kinase panel (DSF assay)) EUB0001559a DCLK1
T2 sequence (whole entry): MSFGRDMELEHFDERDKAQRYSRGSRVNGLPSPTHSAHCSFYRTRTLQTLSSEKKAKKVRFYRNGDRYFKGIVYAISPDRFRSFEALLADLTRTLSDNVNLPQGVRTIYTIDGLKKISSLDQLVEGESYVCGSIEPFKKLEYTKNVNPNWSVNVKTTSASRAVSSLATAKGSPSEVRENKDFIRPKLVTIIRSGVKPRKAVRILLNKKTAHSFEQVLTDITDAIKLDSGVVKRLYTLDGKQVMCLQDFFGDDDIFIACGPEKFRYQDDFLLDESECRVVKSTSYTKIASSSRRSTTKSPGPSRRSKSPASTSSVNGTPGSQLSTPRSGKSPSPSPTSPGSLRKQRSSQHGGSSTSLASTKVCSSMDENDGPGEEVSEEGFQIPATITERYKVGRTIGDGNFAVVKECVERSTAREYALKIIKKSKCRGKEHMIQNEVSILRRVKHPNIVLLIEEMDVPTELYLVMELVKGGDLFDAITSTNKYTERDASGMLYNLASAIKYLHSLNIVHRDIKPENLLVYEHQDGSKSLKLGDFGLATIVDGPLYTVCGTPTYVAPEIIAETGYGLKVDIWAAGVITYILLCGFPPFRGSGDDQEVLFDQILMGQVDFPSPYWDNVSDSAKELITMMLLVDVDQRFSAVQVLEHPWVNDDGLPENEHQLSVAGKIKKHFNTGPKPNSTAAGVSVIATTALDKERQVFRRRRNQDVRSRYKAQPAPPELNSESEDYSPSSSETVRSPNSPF

[4] = target: T3, Serine/threonine-protein kinase D3 (Homo sapiens) (UniProt O94806); details: at 10 µM
T3 sequence (whole entry): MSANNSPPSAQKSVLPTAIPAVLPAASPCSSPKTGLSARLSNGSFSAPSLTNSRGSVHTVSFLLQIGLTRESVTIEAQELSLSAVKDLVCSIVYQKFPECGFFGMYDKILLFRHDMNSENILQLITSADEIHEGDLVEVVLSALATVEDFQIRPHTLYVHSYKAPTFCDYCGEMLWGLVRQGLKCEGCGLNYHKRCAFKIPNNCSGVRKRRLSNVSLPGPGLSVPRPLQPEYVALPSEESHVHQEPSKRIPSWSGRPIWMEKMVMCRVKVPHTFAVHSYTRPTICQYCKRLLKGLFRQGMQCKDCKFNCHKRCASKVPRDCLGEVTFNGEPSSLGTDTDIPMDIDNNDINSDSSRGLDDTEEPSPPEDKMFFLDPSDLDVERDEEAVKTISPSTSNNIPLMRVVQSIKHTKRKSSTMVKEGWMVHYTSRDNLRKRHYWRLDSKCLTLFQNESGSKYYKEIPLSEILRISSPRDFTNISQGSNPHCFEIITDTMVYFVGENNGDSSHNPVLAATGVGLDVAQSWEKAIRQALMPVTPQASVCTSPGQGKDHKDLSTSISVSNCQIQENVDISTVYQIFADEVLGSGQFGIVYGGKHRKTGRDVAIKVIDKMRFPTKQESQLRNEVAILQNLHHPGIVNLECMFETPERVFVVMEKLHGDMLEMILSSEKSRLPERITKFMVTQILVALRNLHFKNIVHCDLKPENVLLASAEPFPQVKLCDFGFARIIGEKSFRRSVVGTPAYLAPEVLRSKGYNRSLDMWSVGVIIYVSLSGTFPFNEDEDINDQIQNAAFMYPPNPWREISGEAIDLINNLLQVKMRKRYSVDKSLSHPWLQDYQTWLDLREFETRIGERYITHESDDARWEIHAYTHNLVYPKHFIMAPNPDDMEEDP

[5] = system: Epidermal growth factor receptor (Homo sapiens), P00533 [UNDEFINED MUTATION]; test: Selectivity interaction (KinomeScan (DiscoverX)) EUB0001619a EGFR; details: at 1 µM
Sequence of Epidermal growth factor receptor (Homo sapiens), P00533 [UNDEFINED MUTATION] (P00533 whole entry, looked up, change not shown): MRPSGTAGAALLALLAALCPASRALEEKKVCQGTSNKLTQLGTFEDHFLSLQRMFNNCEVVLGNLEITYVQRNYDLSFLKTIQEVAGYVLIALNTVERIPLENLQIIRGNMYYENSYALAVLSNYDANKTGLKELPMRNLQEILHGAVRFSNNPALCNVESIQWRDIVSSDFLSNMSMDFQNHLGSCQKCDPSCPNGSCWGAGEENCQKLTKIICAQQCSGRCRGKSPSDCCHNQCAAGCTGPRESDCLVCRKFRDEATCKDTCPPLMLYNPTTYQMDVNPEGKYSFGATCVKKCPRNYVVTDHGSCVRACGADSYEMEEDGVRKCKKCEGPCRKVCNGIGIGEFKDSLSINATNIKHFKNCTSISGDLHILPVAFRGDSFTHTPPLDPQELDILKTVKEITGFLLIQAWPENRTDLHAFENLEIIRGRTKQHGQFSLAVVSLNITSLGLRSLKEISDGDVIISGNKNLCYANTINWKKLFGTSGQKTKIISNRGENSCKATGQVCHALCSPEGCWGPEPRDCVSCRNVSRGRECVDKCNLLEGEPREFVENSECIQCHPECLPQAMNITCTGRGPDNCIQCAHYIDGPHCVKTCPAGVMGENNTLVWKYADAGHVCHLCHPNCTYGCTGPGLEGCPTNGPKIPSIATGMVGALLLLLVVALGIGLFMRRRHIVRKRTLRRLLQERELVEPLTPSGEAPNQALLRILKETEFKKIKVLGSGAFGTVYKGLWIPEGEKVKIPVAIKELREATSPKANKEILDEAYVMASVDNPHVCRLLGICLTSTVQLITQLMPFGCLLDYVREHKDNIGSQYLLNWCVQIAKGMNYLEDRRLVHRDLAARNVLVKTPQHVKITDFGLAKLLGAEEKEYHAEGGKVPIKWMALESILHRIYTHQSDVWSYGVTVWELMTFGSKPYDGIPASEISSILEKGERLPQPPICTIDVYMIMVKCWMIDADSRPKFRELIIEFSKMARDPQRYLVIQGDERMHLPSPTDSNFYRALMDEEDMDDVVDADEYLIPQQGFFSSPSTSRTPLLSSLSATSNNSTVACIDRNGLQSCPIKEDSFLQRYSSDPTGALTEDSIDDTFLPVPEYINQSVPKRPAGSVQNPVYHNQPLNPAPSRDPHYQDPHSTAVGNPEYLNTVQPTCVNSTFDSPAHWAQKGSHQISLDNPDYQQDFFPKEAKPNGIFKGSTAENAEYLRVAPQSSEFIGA

SMILES: CNC(=O)Nc1ccc(-c2nc(N3CC4CCC(C3)O4)c3cnn(C4CCC5(CC4)OCCO5)c3n2)cc1
- % of control [1]: 84%

- % of inhibition ([2]; at 0.01 µM): -24.7%
- % of inhibition ([2]; at 0.04 µM): -15%
- % of inhibition ([2]; at 0.2 µM): -4.7%
- % of inhibition ([2]; at 1 µM): -15.6%
- % of inhibition ([2]; at 5 µM): -19.6%
SMILES: CC[C@@H]1[C@H](F)C(=O)N[C@@H]1COc1nccc2cc(C(N)=O)c(OC)cc12 [ZIMLOVISERTIB]

- dTM [3]: -0.6 K
SMILES: CN(C(=O)c1cnn2cccnc12)c1cc2c(cc1N1CCOCC1)C(=O)N(C[C@@H](F)C(C)(C)O)C2

SMILES: Cc1cc([C@@H](C)Nc2ccccc2C(=O)O)c2nc(N3CCOCC3)cc(=O)n2c1 [AZD-6482]
- % of control [4]: 100%

SMILES: N#Cc1cccc(-c2c[nH]c3ncnc(N4CCOCC4)c23)c1
- % of control [5]: 100%
